Measurements as given in USRE47689E1, “Compounds for treating spinal muscular atrophy” (PTC Therapeutics, Inc., priority 2011, dated 2019).

Assays:
[1] = test system: SMN2 minigene (full length SMN2 minigene mRNA containing SMN2 exon 7); assay: SMN2 minigene mRNA splicing RT-qPCR assay in cultured cells; type: cell-based, human; settings: Homo sapiens, HEK293-H; HEK293H cells stably transfected with SMN2-A minigene; 24 hours; 7-point concentration curve; 1.5-fold relative to vehicle-treated cells; read-out: EC1.5x for production of full length SMN2 mRNA
How it was run: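 Read-out: full-length (exon 7-included) SMN2 minigene mRNA by multiplex RT-qPCR with GAPDH, efficiency-corrected (1+E)^−Ct, GAPDH-normalized and divided by vehicle. Stably transfected HEK293H cells, 24 h compound exposure, duplicates per concentration. Value is EC1.5x, reported as star ranges.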

Smn protein = Smn protein assay in cultured cells (SMN HTRF); type: cell-based, human; settings: 48 hours; for maximum fold (Fold) increase of Smn protein: SMA patient fibroblast cells, 7-point concentration data, fold increase relative to vehicle control (SMN HTRF); for EC1.5x (concentration giving 1.5-fold Smn protein increase): SMA Type 1 patient fibroblast cells (GM03813), 7-point concentration curve, SMN HTRF, concentration producing 1.5 times Smn protein vs DMSO vehicle control, read-out: EC1.5x for Smn protein expression
How it was run: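 Lysates in RIPA with protease inhibitors are incubated overnight at room temperature with HTRF anti-SMN antibodies. EC1.5x is derived from fold increase in ΔF over vehicle.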

| SMILES | melting point | EC (1.5-fold) [1] | maximum fold (Fold) increase of Smn protein (Smn protein) | EC1.5x (concentration giving 1.5-fold Smn protein increase) (Smn protein) |
| --- | --- | --- | --- | --- |
| Cc1cc(Cl)c2nc(-c3cc4ccc(N5C[C@@H](C)N[C@@H](C)C5)cc4oc3=O)cn2c1 [Compound 342, 3-(8-chloro-6-methylimidazo[1,2-a]pyridin-2-yl)-7-[(3R,5S)-3,5-dimethylpiperazin-1-yl]-2H-chromen-2-one] | 258 to 263 °C | 0.1 to 0.3 µM | ** (fold increase between >1.2 and ≤1.35) | – |
| Cc1ccc2nc(-c3cc4ccc(N(C)CCN(C)C)cc4oc3=O)cn2c1 [Compound 175, 7-{[2-(dimethylamino)ethyl](methyl)amino}-3-(6-methylimidazo[1,2-a]pyridin-2-yl)-2H-chromen-2-one] | 140 to 180 °C (dec.) | 3 to 30 µM | * (maximum fold increase of ≤1.2) | – |
| Cc1ccc2nc(-c3cc4ccc(N5CCC(N)CC5)cc4oc3=O)cn2c1 [Compound 219, 7-(4-aminopiperidin-1-yl)-3-(6-methylimidazo[1,2-a]pyridin-2-yl)-2H-chromen-2-one] | 250 to 252 °C | 3 to 30 µM | * (maximum fold increase of ≤1.2) | – |
| C[C@@H]1CN(c2ccc3cc(-c4cn5cc(F)cnc5n4)c(=O)oc3c2)C[C@H](C)N1 [Compound 491, 7-[(3R,5S)-3,5-dimethylpiperazin-1-yl]-3-(6-fluoroimidazo[1,2-a]pyrimidin-2-yl)-2H-chromen-2-one] | 275 to 281 °C | 1 to 3 µM | ** (fold increase between >1.2 and ≤1.35) | – |
| Cc1cn2cc(-c3cc4ccc(N5CCCNCC5)cc4oc3=O)nc2c(C)n1 [Compound 518, 7-(1,4-diazepan-1-yl)-3-(6,8-dimethylimidazo[1,2-a]pyrazin-2-yl)-2H-chromen-2-one] | 188 to 190 °C | < 0.1 µM | ***** (fold increase >1.65) | < 300 nM |
| CN1CCN(c2ccc3cc(-c4cn5cccc(Br)c5n4)c(=O)oc3c2)CC1 [Compound 245, 3-(8-bromoimidazo[1,2-a]pyridin-2-yl)-7-(4-methylpiperazin-1-yl)-2H-chromen-2-one] | 217 to 220 °C | 0.1 to 0.3 µM | ** (fold increase between >1.2 and ≤1.35) | – |
| Cc1csc(-c2cc3ccc(N4CCNC(C)(C)C4)cc3oc2=O)n1 [Compound 301, 7-(3,3-dimethylpiperazin-1-yl)-3-(4-methyl-1,3-thiazol-2-yl)-2H-chromen-2-one] | 204 to 209 °C | 1 to 3 µM | * (maximum fold increase of ≤1.2) | – |
| O=c1oc2cc(N3CCCNCC3)cc(F)c2cc1-c1cn2cccnc2n1 [Compound 336, 7-(1,4-diazepan-1-yl)-5-fluoro-3-(imidazo[1,2-a]pyrimidin-2-yl)-2H-chromen-2-one] | 305 to 307 °C | 0.3 to 1 µM | * (maximum fold increase of ≤1.2) | – |
| O=c1oc2cc(N3CCNCC3)cc(F)c2cc1-c1cn2cccnc2n1 [Compound 312, 5-fluoro-3-(imidazo[1,2-a]pyrimidin-2-yl)-7-(piperazin-1-yl)-2H-chromen-2-one] | 298 to 302 °C | 0.3 to 1 µM | ** (fold increase between >1.2 and ≤1.35) | – |
| CN1CCN(c2cc(F)c3cc(-c4nc5c(F)cccc5o4)c(=O)oc3c2)CC1 [Compound 366, 5-fluoro-3-(4-fluoro-1,3-benzoxazol-2-yl)-7-(4-methylpiperazin-1-yl)-2H-chromen-2-one] | 256 to 260 °C | 0.3 to 1 µM | ** (fold increase between >1.2 and ≤1.35) | – |
| Cc1ccn2cc(-c3cc4ccc(NCCCN(C)C)cc4oc3=O)nc2c1 [Compound 475, 7-{[3-(dimethylamino)propyl]amino}-3-(7-methylimidazo[1,2-a]pyridin-2-yl)-2H-chromen-2-one] | 165 to 170 °C | 3 to 30 µM | * (maximum fold increase of ≤1.2) | – |
| COc1c(F)cc(F)cc1-c1cc2ccc(N3CCN[C@@H](C)C3)cc2oc1=O [Compound 539, 3-(3,5-difluoro-2-methoxyphenyl)-7-[(3S)-3-methylpiperazin-1-yl]-2H-chromen-2-one] | 156 to 158 °C | 3 to 30 µM | * (maximum fold increase of ≤1.2) | – |
| O=C(O)C(F)(F)F.O=c1oc2cc(N3CCNCC3)ccc2cc1-c1nc(C(F)(F)F)cs1 [Compound 52, 7-(piperazin-1-yl)-3-[4-(trifluoromethyl)-1,3-thiazol-2-yl]-2H-chromen-2-one trifluoroacetate] | 221 to 229 °C | 0.3 to 1 µM | * (maximum fold increase of ≤1.2) | – |
| CN1CCCN(c2ccc3cc(-c4cn5cccc(F)c5n4)c(=O)oc3c2)CC1 [Compound 295, 3-(8-fluoroimidazo[1,2-a]pyridin-2-yl)-7-(4-methyl-1,4-diazepan-1-yl)-2H-chromen-2-one] | 174 to 176 °C | < 0.1 µM | **** (fold increase between >1.5 and ≤1.65) | 300 to 1000 nM |

Second part, led by results:

| melting point | SMILES | EC (1.5-fold) [1] | maximum fold (Fold) increase of Smn protein (Smn protein) | EC1.5x (concentration giving 1.5-fold Smn protein increase) (Smn protein) |
| --- | --- | --- | --- | --- |
| 265 to 268 °C | Cc1nc(Cl)cn2cc(-c3cc4ccc(N5CCN[C@H](C)C5)cc4oc3=O)nc12 [Compound 699, 3-(6-chloro-8-methylimidazo[1,2-a]pyrazin-2-yl)-7-[(3R)-3-methylpiperazin-1-yl]-2H-chromen-2-one] | 0.1 to 0.3 µM | ***** (fold increase >1.65) | 300 to 1000 nM |
| 201 to 206 °C | C[C@@H]1CN(c2ccc3cc(-c4cn(-c5ccccn5)cn4)c(=O)oc3c2)C[C@H](C)N1 [Cpd 433, 7-[(3R,5S)-3,5-dimethylpiperazin-1-yl]-3-[1-(pyridin-2-yl)-1H-imidazol-4-yl]-2H-chromen-2-one] | 3 to 30 µM | * (maximum fold increase of ≤1.2) | – |
| 165 to 168 °C | CCN(CC)C1CCN(c2ccc3cc(-c4cc5c(C)nc(C)cn5c4)c(=O)oc3c2)C1 (centres unmarked) [Compound 735, 7-[3-(diethylamino)pyrrolidin-1-yl]-3-(1,3-dimethylpyrrolo[1,2-a]pyrazin-7-yl)-2H-chromen-2-one] | < 0.1 µM | **** (fold increase between >1.5 and ≤1.65) | 300 to 1000 nM |
| 255 to 260 °C | CN1CCCN(c2ccc3cc(-c4cn5cc(F)cc(F)c5n4)c(=O)oc3c2)CC1 [Cpd 520, 3-(6,8-difluoroimidazo[1,2-a]pyridin-2-yl)-7-(4-methyl-1,4-diazepan-1-yl)-2H-chromen-2-one] | 0.3 to 1 µM | ** (fold increase between >1.2 and ≤1.35) | – |
| 158 to 162 °C | Cc1cn2cc(-c3cc4ccc(CCCN(CCO)CCO)cc4oc3=O)nc2c(C)n1 [Compound 885, 7-{3-[bis(2-hydroxyethyl)amino]propyl}-3-(6,8-dimethylimidazo[1,2-a]pyrazin-2-yl)-2H-chromen-2-one] | 0.1 to 0.3 µM | ***** (fold increase >1.65) | 300 to 1000 nM |
| 165 to 168 °C | Cc1cn2cc(-c3cc4ccc(OC5CCN(C)CC5)cc4oc3=O)nc2c(C)n1 [Compound 867, 3-(6,8-dimethylimidazo[1,2-a]pyrazin-2-yl)-7-[(1-methylpiperidin-4-yl)oxy]-2H-chromen-2-one] | < 0.1 µM | **** (fold increase between >1.5 and ≤1.65) | < 300 nM |
| 228 to 230 °C | Cc1ccc2oc(-c3cc4ccc(N5CCN6CCC[C@H]6C5)cc4oc3=O)cc2n1 [Compound 722, 7-[(8aS)-hexahydropyrrolo[1,2-a]pyrazin-2(1H)-yl]-3-(5-methylfuro[3,2-b]pyridin-2-yl)-2H-chromen-2-one] | 1 to 3 µM | * (maximum fold increase of ≤1.2) | – |
| 210 to 215 °C | Cc1nc(Cl)cn2cc(-c3cc4ccc(N5CC[C@H](N(C)C)C5)cc4oc3=O)nc12 [Compound 765, 3-(6-chloro-8-methylimidazo[1,2-a]pyrazin-2-yl)-7-[(3S)-3-(dimethylamino)pyrrolidin-1-yl]-2H-chromen-2-one] | 0.3 to 1 µM | * (maximum fold increase of ≤1.2) | – |
| 187 to 191 °C | Cc1cn2cc(-c3cc4ccc(CCCCN5CCNCC5)cc4oc3=O)nc2c(C)n1 [Compound 905, 3-(6,8-dimethylimidazo[1,2-a]pyrazin-2-yl)-7-[4-(piperazin-1-yl)butyl]-2H-chromen-2-one] | 1 to 3 µM | **** (fold increase between >1.5 and ≤1.65) | 1000 to 3000 nM |
| 212 to 216 °C | Cc1nccn2cc(-c3cc4ccc(N5CCCNCC5)cc4oc3=O)nc12 [Compound 572, 7-(1,4-diazepan-1-yl)-3-(8-methylimidazo[1,2-a]pyrazin-2-yl)-2H-chromen-2-one] | 0.1 to 0.3 µM | **** (fold increase between >1.5 and ≤1.65) | 300 to 1000 nM |
